Measurements as given in patent publication US20220273759A1, “PHARMACEUTICAL ASSOCIATION FOR CONVERTING A NEOPLASTIC CELL INTO A NON-NEOPLASTIC CELL AND USES THEREOF” (HISTIDE AG, priority 2015, published 2022).

Each sequence was assayed on human osteosarcoma cells, MG63 (assay: Tumor cell recoding via quantification of pRB and p53 (immunofluorescence staining, ImageJ)). Conditions: Table 4; MG63; quantification of pRB.
Assay type: cell-based
Experimental: (§1) The cells were first fixed for 20 min with 4% paraformaldehyde/PBS at 4° C. After fixation, the cells were permeabilized in PBS containing 1% Triton X-100 for 15 min. Protein immunofluorescent visualization was performed by first treating the cells with 1% (v/v) specific monoclonal antibodies for 1 hour at 37° C. Then the samples were incubated with Alexa Fluor® 568 or 647 (F(ab′)2 fragment of IgG(H+L)) during 30 min at room temperature. The cell nuclei were counterstained in 20 ng/mL DAPI for 10 min at room temperature.
For this type of quantification the freeware image analysis ImageJ® software was used. The raw image was first converted to an 8-bit file, and then the unsharp mask feature was used (settings 1:0.2) to remove the image background (rolling ball radius 10). After smoothing, the resulting image, which appears similar to the original photomicrograph but with minimal background, was then converted to a binary image by setting a threshold. Threshold values were determined empirically by selecting a setting, which gave the most accurate binary image for a subset of randomly selected photomicrographs. The cell area was determined by manual delineation on raw fluorescent images. Total contact area and mean contact area per cell were calculated by “analyse particules” in ImageJ®. A minimum of 50 cells per condition were analyzed.
Neoplastic cells (in this example osteosarcoma cells) were cultured on pharmaceutical associations comprising PET as a bioactive carrier and one of GFR-binding compounds of SEQ ID NO: 11 to 14, 24 to 26 and 51 to 63. A rapid (24 hours) decrease of the tumor markers was observed (FIG. 7). The adhesion checkpoint then activates the tumor suppressor proteins p53 and pRB. […]

| Sequence | pRB (%) |
| --- | --- |
| KIPKASSVPQELEPLPIVYY (Non-cyclic GFR-binding peptide) [SEQ ID NO: 74] | 9 |
| RNVQSRPVPTQLSPISVLYK (Non-cyclic GFR-binding peptide) [SEQ ID NO: 86] | 24 |

Same assay, conditions: Table 5; MG63; quantification of pRB

| Sequence | pRB (%) |
| --- | --- |
| KIPKASSVPQELEPLPIVYY (Non-cyclic GFR-binding peptide) [SEQ ID NO: 74] | 9 |
| RNVQSRPVPTQLSPISVLYK (Non-cyclic GFR-binding peptide) [SEQ ID NO: 86] | 24 |

These sequences were tested on human adenocarcinoma cells (assay: Recoding via quantification of pRB and P53, adenocarcinoma cells). Conditions: Table 6, peptide in association with PET.
Assay type: cell-based
Experimental: as §1
(§2) For this type of quantification the freeware image analysis ImageJ® software was used. The raw image was first converted to an 8-bit file, and then the unsharp mask feature was used (settings 1:0.2) to remove the image background (rolling ball radius 10). After smoothing, the resulting image, which appears similar to the original photomicrograph but with minimal background, was then converted to a binary image by setting a threshold. Threshold values were determined empirically by selecting a setting, which gave the most accurate binary image for a subset of randomly selected photomicrographs. The cell area was determined by manual delineation on raw fluorescent images. Total contact area and mean contact area per cell were calculated by “analyse particules” in ImageJ®. A minimum of 50 cells per condition were analyzed. […]

| Sequence | P53 (%) | pRB (%) |
| --- | --- | --- |
| GIPEPSSAPVEEEPLTTLYY (Non-cyclic GFR-binding peptide) [SEQ ID NO: 232] | 21 | 13 |
| GIPEPSSAPVGQEPLPMVYY (Non-cyclic GFR-binding peptide) [SEQ ID NO: 230] | 30 | 19 |
| KIPKASSVPAQLEPLPIVYY (Non-cyclic GFR-binding peptide) [SEQ ID NO: 229] | 31 | 23 |
| KIPKASSVPTKMKPLSVLYV (Non-cyclic GFR-binding peptide) [SEQ ID NO: 226] | 31 | 16 |
| RVPSTSSAPTKMKPLSMLYV (Non-cyclic GFR-binding peptide) [SEQ ID NO: 227] | 32 | 14 |
| GIPEPSSAPVDMRPVQIRKI (Non-cyclic GFR-binding peptide) [SEQ ID NO: 238] | 40 | 23 |
| STPPTSSVSQKMKPLSILYV (Non-cyclic GFR-binding peptide) [SEQ ID NO: 228] | 26 | 18 |
| RVPSTSSVPEKMEPLTMLYY (Non-cyclic GFR-binding peptide) [SEQ ID NO: 231] | 22 | 18 |
| STPPTSSTPTKMSNITTQIM (Non-cyclic GFR-binding peptide) [SEQ ID NO: 233] | 43 | 23 |
| AASKASSVPEKMRPVQTRKI (Non-cyclic GFR-binding peptide) [SEQ ID NO: 237] | 42 | 22 |
| AASKASSVPQRLRSVKVAKV (Non-cyclic GFR-binding peptide) [SEQ ID NO: 235] | 40 | 26 |
| KIPKASSTQVRLRSVKTAKV (Non-cyclic GFR-binding peptide) [SEQ ID NO: 236] | 37 | 25 |
| AASKASSSRVKMSPINVLYF (Non-cyclic GFR-binding peptide) [SEQ ID NO: 225] | 25 | 12 |
| RVPSTSSVPAEESNITVQIM (Non-cyclic GFR-binding peptide) [SEQ ID NO: 234] | 45 | 22 |

The sequences below were run on human rhabdosarcoma cells (assay: Recoding via quantification of pRB and P53, rhabdosarcoma cells). Conditions: Table 6, peptide in association with PET.
Assay type: cell-based
Experimental: as §1, §2

| Sequence | P53 (%) | pRB (%) |
| --- | --- | --- |
| AASKASSTPTDLNAISTLYF (Non-cyclic GFR-binding peptide) [SEQ ID NO: 216] | 27 | 19 |
| KIPKASSTQVRLRPVQIRKI (Non-cyclic GFR-binding peptide) [SEQ ID NO: 211] | 42 | 19 |
| KIPKASSSRVRLSSLSTLFF (Non-cyclic GFR-binding peptide) [SEQ ID NO: 215] | 30 | 19 |
| GIPEPSSVSQEESSLSTLFF (Non-cyclic GFR-binding peptide) [SEQ ID NO: 214] | 31 | 18 |
| RVPSTSSTQVDLNAISVLYF (Non-cyclic GFR-binding peptide) [SEQ ID NO: 217] | 24 | 18 |
| AASKASSSRVELRSVKIAKV (Non-cyclic GFR-binding peptide) [SEQ ID NO: 210] | 42 | 22 |
| STPPTSSSRVQLSAISMLYL (Non-cyclic GFR-binding peptide) [SEQ ID NO: 212] | 27 | 11 |
| RVPSTSSTQVKMSAISMLYL (Non-cyclic GFR-binding peptide) [SEQ ID NO: 213] | 26 | 12 |

These sequences were tested on mesenchymal chondrosarcoma cells (assay: Recoding via quantification of pRB and P53, chondrosarcoma cells). Conditions: Table 6, peptide in association with PET.
Assay type: cell-based
Experimental: as §1, §2

| Sequence | P53 (%) | pRB (%) |
| --- | --- | --- |
| STPPTSSVPTEVSPINTLYF (Non-cyclic GFR-binding peptide) [SEQ ID NO: 224] | 26 | 13 |
| STPPTSSAPVGQSPISMLYI (Non-cyclic GFR-binding peptide) [SEQ ID NO: 220] | 34 | 15 |
| GIPEPSSAPTRLEPISMLYL (Non-cyclic GFR-binding peptide) [SEQ ID NO: 222] | 36 | 8 |
| KIPKASSTPTRLSPISMLFI (Non-cyclic GFR-binding peptide) [SEQ ID NO: 221] | 37 | 21 |
| KIPKASSTQVGQSATSILYY (Non-cyclic GFR-binding peptide) [SEQ ID NO: 219] | 31 | 14 |
| KIPKASSVSQQLEPISTLYL (Non-cyclic GFR-binding peptide) [SEQ ID NO: 223] | 29 | 9 |
| GIPEPSSVSQELSATSMLYY (Non-cyclic GFR-binding peptide) [SEQ ID NO: 218] | 28 | 17 |

The sequences below were run on Smad1/5/8 signaling pathway (assay: Growth factor receptor activation: western blot quantification of phospho-smad1/5/8). Conditions: Table 4; human osteosarcoma cells MG63; quantification of western blots of phospho-smad1/5/8.
Assay type: cell-based
Experimental: After 24 hours of culture, cells were permeabilized (10% SDS, 25 mM NaCl, 10 nM pepstatin and 10 nM leupeptin in distilled water and loading buffer), boiled for 10 minutes and resolved by reducing PAGE (Invitrogen). Proteins were transferred onto nitrocellulose, blocked, and labeled with HRP-conjugated antibodies (Invitrogen). Integrin αv, α5, +3, α4, β1, β3, β5 and […] were blotted by treating the nitrocellulose with monoclonal anti-integrin (extracellular domain) αv, α5, +3, α4, β1, β3, β5 and β6 antibodies (Santa Cruz Biotechnology). Phosphor-Smad1/5/8 was blotted by treating the nitrocellulose with monoclonal anti-p-Smad1/5/8 (Santa Cruz Biotechnology). For all of the experiments the western blot was performed in triplicate, along with an additional blot for actin and coomassie blue staining to ensure constant protein load among samples.

| Sequence | p-Smad1/5/8 (%) |
| --- | --- |
| KIPKASSVPQELEPLPIVYY (Non-cyclic GFR-binding peptide) [SEQ ID NO: 74] | 44 |
| RNVQSRPVPTQLSPISVLYK (Non-cyclic GFR-binding peptide) [SEQ ID NO: 86] | 26 |
